The source of these data is patent US10130638B2, “Prevention of adverse effects caused by CD3 specific binding domains” (AMGEN RESEARCH (MUNICH) GMBH, priority 2010, dated 2018).

“Also recorded” adds a separate entry of the source.

The conditions of series [1]: cited from earlier work.
For series [2], the system named is patients treated with blinatumomab. Briefly: Dexamethasone prophylaxis to prevent neurological adverse events during blinatumomab treatment. The format is in vivo, human. As to conditions: Patient 108-010, trial 103-104, DLBCL; as other patients (20 mg dexamethasone 12 h and 1 h before) plus 100 mg prednisolone one hour before start of infusion. As to the method:
Besides the therapeutic use of dexamethasone to mitigate neurological adverse events, dexamethasone was also used as prophylaxis in order to prevent neurological adverse events.
(§1) Each of the following 5 patients in trial 103-104 (all with DLBCL) were treated with blinatumomab continuous infusion at 5 μg/m2/d for the 1st week, then 15 μg/m2/d for the 2nd week, and then 60 μg/m2/d for the remaining treatment period that could an additional 2-6 weeks.

In another series the test system is DLBCL patients. Briefly: Phase I trial in DLBCL patients: glucocorticoid cohorts, dose-limiting toxicities (DLT). The format is in vivo, human. The settings on record: for Safety assessment of cohort: DLBCL cohorts, antibody 5/15/60 μg/m2/d with glucocorticoid medication. As to the method: A Phase I clinical trial was performed in patients with various B-NHL including DLBCL to evaluate the CD19×CD3 bispecific antibody construct in DLBCL patients. Patients were treated for 4-8-weeks by continuous i.v. administration of the antibody with the following step-wise dosing regimen: first week at 5 μg/m^2/d, second week at 15 μg/m^2/d and for the remaining treatment period at 60 μg/m^2/d.
Two cohorts each with 6 DLBCL patients were enrolled. The two cohorts solely differed by the dose and schedule of the glucocorticoid medication administered at the beginning of the antibody infusion for mitigation of adverse events.
Out of the twelve patients, 5 were male and 7 female. The median age was 57 years (range from 24 to 78 years). Patients had received a median of 4 prior regimens (range from 2-6). All patients had been exposed to rituximab. Eight of the 12 patients had undergone ASCT. International prognostic index (IPI) at screening ranged from 1 to 3 with a median of 2.

A further series relates to patients with B-NHL. Put plainly: Neurological/psychiatric adverse events under blinatumomab continuous infusion. The format is in vivo, human. The protocol:
For the clinical trials in connection with the application of a CD19×CD3 bispecific single chain antibody for the treatment of tumorous mass of lymph node tissue and/or extranodal lymphoma caused by DLBCL, the present inventors had to develop a treatment regime which was efficient and would be well tolerated by most of the patients. To this end, the present inventors applied a step-wise application of a CD19×CD3 bispecific single chain antibody in that 5/15/60 μg/m^2/24 h was administered to patients. […] Also contemplated in the step-wise administration of a CD19×CD3 bispecific single chain antibody is a treatment regime using two of the dosages, such as 5/15 μg/m^2/24 h, 5/60 μg/m^2/24 h, or 15/60 μg/m^2/24 h for the duration of the patient's treatment. The appropriate dosage can be selected by the clinician on the basis of efficacy, tolerability and safety with a minimum of adverse effects in the patient.

Series [3] has as its system malignant CD19 positive lymphocytes. Briefly: Tumour response to blinatumomab in patients given dexamethasone prophylaxis. The format is in vivo, human.
From the text: By “complete response” is intended an absence of clinically detectable disease with normalization of any previously abnormal imaging studies such as radiographic studies. Such a response preferably persists for at least 4 to 8 weeks, sometimes 6 to 8 weeks or more than 8, 10, 12, 14, 16, 18 or 20 weeks or longer, following treatment according to the invention. Alternatively, an improvement in the disease may be categorized as being a partial response.
Detailed remission and response definitions for NHL patients are used according to Cheson et al., 1999, J Clin Oncol. April; 17(4):1244
By “partial response” is intended at least about a 50% decrease in all measurable tumor burden (i.e., the number of malignant cells present in the patient, or the measured bulk of tumor masses) in the absence of new lesions and persisting for 4 to 8 weeks or more than 8, 10, 12, 14, 16, 18 or 20 weeks or longer. A “complete response” does, however, not necessarily indicate that a disease has been cured, since a patient may relapse. However, if so, the patient can again be treated with a composition comprising a CD19×CD3 bispecific antibody as described herein.
as §1

The subject of series [4] is patients with B cell malignancies. As to conditions: cited from earlier work.
The next series concerns lymphoma target cells. As to conditions: cited from earlier work.
Where [5] appears, read: non-Hodgkin's lymphoma patients.

On to `C[C@]12CCC(=O)C=C1CC[C@@H]1[C@@H]2[C@@H](O)C[C@@]2(C)[C@H]1CC[C@]2(O)C(=O)CO` [Hydrocortisone], for which the Biologic half-life in series [1] is listed as 8-12 hrs.
With `C[C@]12C=CC(=O)C=C1CC[C@@H]1[C@@H]2[C@@H](O)C[C@@]2(C)[C@H]1CC[C@]2(O)C(=O)CO` [Prednisolone], the “Discontinuation due to neurological/psychiatric adverse events” value in series [2] was “did not have to discontinue”. Besides, in the series on DLBCL patients, the “Safety assessment of cohort” value is on record as “considered safe”. For the same molecule, the DLT result in the series on DLBCL patients (prednisolone DLBCL cohort: 100 mg prednisolone 1 hour prior to start, antibody 5/15/60 μg/m2/d) is given as “just one DLT (reversible CNS event grade 3)”. The Biologic half-life in series [1] is 18-36 hrs.
For the molecule `C[C@]12C=CC(=O)C=C1CC[C@@H]1[C@@H]2C(=O)C[C@@]2(C)[C@H]1CC[C@]2(O)C(=O)CO` [Prednisone], in series [1], the Biologic half-life is recorded as 18-36 hrs.
With `C[C@H]1C[C@@H]2[C@H]([C@@H](O)C[C@@]3(C)[C@H]2CC[C@]3(O)C(=O)CO)[C@@]2(C)C=CC(=O)C=C12` [Methylprednisolone], the Biologic half-life in series [1] was 18-36 hrs.
With `C[C@@H]1C[C@H]2[C@@H]3CCC4=CC(=O)C=C[C@]4(C)[C@@]3(F)[C@@H](O)C[C@]2(C)[C@@]1(O)C(=O)CO` [Dexamethasone], the “Safety assessment of cohort” value with DLBCL patients was “considered safe”. Also, the DLT entry with DLBCL patients (prophylactic dexamethasone cohort: 3×8 mg at start of infusion or dose increase, 3×6 mg or 3×4 mg on following 2 days, first two patients) is on record as “one of the first two patients having a DLT”; in the series with DLBCL patients (“early dexamethasone” schedule: 20 mg at −12 to −6 hours and −1 hour, 3×8 mg during following 2 days, total of 5 DLBCL patients) it was “no DLT was observed”.
On to Blinatumomab, for which the “Adverse effects, in particular neurological/psychiatric events, with step-wise application” value in the series on patients with B-NHL (DLBCL patients, step-wise 5/15/60 μg/m2/24 h) is “reduced in number, ameliorated and even prevented”. Also, the Neurological adverse events result in the series on patients with B-NHL (Patient 109-036, follicular lymphoma, starting day 11, four days after step from 5 to 60 μg/m2/d) was “neurological adverse events (tremor and apraxia)”; with patients with B-NHL (Patient 109-038, DLBCL, 5/15/60 μg/m2/d, day 15), “developed intention tremor”; with patients with B-NHL (Patient 109-039, MCL, 5/15/60 μg/m2/d, day 17), “developed tremor and slight speech disturbance”; in the series with patients with B-NHL (Patient 153-002, MCL, 5/15/60 μg/m2/d, day 4), “developed slight speech problems”. Also, the “Treatment stop due to neurological/psychiatric adverse events” value with patients with B-NHL (Patient 135-001, DLBCL, day 4 after step to 60 μg/m2/d, too fast to intervene with dexamethasone) is listed as “had to stop due to neurological/psychiatric adverse events”. The “Treatment stop due to neurological adverse event” value in the series with patients with B-NHL (Patient 153-002, MCL, day 22, paresis disappeared without intervention) is “had to stop treatment due to paresis”. Moreover, the Tumour response entry in series [3] (DLBCL patients with “early dexamethasone” schedule, Phase I) is “objective responses have been observed”; in series [3] (Patient 155-001, relapsed ALL, blinatumomab 15 μg/m2/d 16 days, dexamethasone prophylaxis 8 mg), “complete remission”; in series [3] (patient with ALL, blinatumomab 15 μg/m2/d, dexamethasone prophylaxis days 1-3), “complete remission”. For the same molecule, the “Tumour response of the lymphoma” value in series [3] (trial 103-104, DLBCL, blinatumomab 5/15/60 μg/m2/d, 20 mg dexamethasone prophylaxis, one patient per block) is reported as “objective response; also recorded: complete remission”. Besides, the “Patients with early neurological reaction (confusion, ataxia, speech disorder, disorientation)” value in series [4] (escalating doses as bolus infusions, B cell malignancies, retrospective analysis) is 7 out of 22. In addition, in series [4] (patient with B-CLL, 20 minute-infusions of 3 and 10 microgram, WO 99/54440), the Cytokine release result was “release of TNF, IL-6 and IL-8 has been found”. Besides, in the series with lymphoma target cells (continuously administered over four weeks, non-Hodgkin's lymphoma patients), the “Dose leading to elimination of lymphoma target cells in blood (doses as low as)” value is on record as 0.005 milligrams per square meter per day. In addition, the “Patients with tumor regression” value in the series on lymphoma target cells (dose level 0.06 milligrams/m^2/d) is on record as “all seven patients”. Also, in the series on lymphoma target cells (setting [5]), the “Dose level at which partial and complete tumor regressions were first observed” value was 0.015 milligrams/m^2/d. Also, the “Tumor cells in bone marrow and liver” value in the series on lymphoma target cells (setting [5]) was “clearance of tumor cells from bone marrow and liver”.
